Laboratory results from ChEMBL document CHEMBL1140860, “Synthesis and evaluation of dihydroartemisinin and dihydroartemisitene acetal dimers showing anticancer and antiprotozoal activity” (Bioorg Med Chem, 2009).

How the values were obtained:
HCC 2998 = experiment: Growth inhibition of human HCC2998 cells after 48 hrs by sulforhodamine B assay; format: functional; details: HCC 2998, 48 h
[1] = Selectivity index, ratio of TC50 for african green monkey (Cercopithecus aethiops) Vero cells to IC50 for chloroquine-resistant Plasmodium falciparum W2; format: toxicity, cell-based
SNB-19 = experiment: Growth inhibition of human SNB19 cells after 48 hrs by sulforhodamine B assay; format: functional; details: SNB-19, 48 h
MDA-N = experiment: Growth inhibition of human MDA-N cells after 48 hrs by sulforhodamine B assay; format: functional
KM12 = experiment: Growth inhibition of human KM12 cells after 48 hrs by sulforhodamine B assay; format: functional; details: KM12, 48 h
M14 = experiment: Growth inhibition of human M14 cells after 48 hrs by sulforhodamine B assay; format: functional; details: M14, 48 h
HOP-62 = experiment: Growth inhibition of human HOP62 cells after 48 hrs by sulforhodamine B assay; format: functional; details: HOP-62, 48 h
HT-29 = experiment: Growth inhibition of human HT-29 cells after 48 hrs by sulforhodamine B assay; format: functional; details: HT-29, 48 h
LOX IMVI = experiment: Growth inhibition of human LOXIMVI cells after 48 hrs by sulforhodamine B assay; format: functional
ACHN = experiment: Growth inhibition of human ACHN cells after 48 hrs by sulforhodamine B assay; format: functional
[2] = Selectivity index, ratio of TC50 for african green monkey (Cercopithecus aethiops) Vero cells to IC50 for chloroquine-sensitive Plasmodium falciparum D6; format: toxicity, cell-based
SF-268 = experiment: Growth inhibition of human SF268 cells after 48 hrs by sulforhodamine B assay; format: functional; details: SF-268, 48 h
OVCAR-8 = experiment: Growth inhibition of human OVCAR8 cells after 48 hrs by sulforhodamine B assay; format: functional; details: OVCAR-8, 48 h
IGROV-1 = experiment: Growth inhibition of human IGROV1 cells after 48 hrs by sulforhodamine B assay; format: functional; details: IGROV-1, 48 h
NCI/ADR-RES = experiment: Growth inhibition of human NCI/ADR-RES cells after 48 hrs by sulforhodamine B assay; format: functional
MDA-MB-435 = experiment: Growth inhibition of human MDA-MB-435 cells after 48 hrs by sulforhodamine B assay; format: functional; details: MDA-MB-435, 48 h
[3] = Growth inhibition of human […] cells after 48 hrs by sulforhodamine B assay; format: functional
U-251 = experiment: Growth inhibition of human U251 cells after 48 hrs by sulforhodamine B assay; format: functional; details: U-251, 48 h
SNB-75 = experiment: Growth inhibition of human SNB75 cells after 48 hrs by sulforhodamine B assay; format: functional; details: SNB-75, 48 h
BT-549 = experiment: Growth inhibition of human BT549 cells after 48 hrs by sulforhodamine B assay; format: functional; details: BT-549, 48 h
COLO 205 = experiment: Growth inhibition of human COLO205 cells after 48 hrs by sulforhodamine B assay; format: functional; details: COLO 205, 48 h
SN12C = experiment: Growth inhibition of human SN12C cells after 48 hrs by sulforhodamine B assay; format: functional
MCF7 = experiment: Growth inhibition of human MCF7 cells after 48 hrs by sulforhodamine B assay; format: functional; details: MCF7, 48 h
SK-MEL-2 = experiment: Growth inhibition of human SK-MEL-2 cells after 48 hrs by sulforhodamine B assay; format: functional; details: SK-MEL-2, 48 h
HOP-92 = experiment: Growth inhibition of human HOP92 cells after 48 hrs by sulforhodamine B assay; format: functional; details: HOP-92, 48 h
SK-MEL-28 = experiment: Growth inhibition of human SK-MEL-28 cells after 48 hrs by sulforhodamine B assay; format: functional; details: SK-MEL-28, 48 h
OVCAR-4 = experiment: Growth inhibition of human OVCAR4 cells after 48 hrs by sulforhodamine B assay; format: functional; details: OVCAR-4, 48 h
T47D = experiment: Growth inhibition of human T47D cells after 48 hrs by sulforhodamine B assay; format: functional
[4] = Cytotoxicity against african green monkey Vero cells after 48 hrs by neutral red assay; format: cell-based; details: chlorocebus sabaeus, read-out: TC50
HCT-15 = experiment: Growth inhibition of human HCT15 cells after 48 hrs by sulforhodamine B assay; format: functional; details: HCT-15, 48 h
A549 = experiment: Growth inhibition of human A549 cells after 48 hrs by sulforhodamine B assay; format: functional; details: A549, 48 h

**Q.** For C[C@H]1[C@@H](O[C@@H](C)CO[C@H]2O[C@@H]3O[C@@]4(C)CC[C@H]5[C@H](C)CC[C@@H]([C@H]2C)[C@@]35OO4)O[C@@H]2O[C@@]3(C)CC[C@H]4[C@H](C)CC[C@@H]1[C@@]24OO3, which GI50 (HCC 2998) is on record?
**A.** 0.049 µM

**Q.** What about the selectivity ratio [1] of the same compound?
**A.** > 15

**Q.** What about the GI50 (SNB-19) of the same compound?
**A.** 0.104 µM

**Q.** And the GI50 (MDA-N)?
**A.** 0.042 µM

**Q.** What about the GI50 (KM12) of the same compound?
**A.** < 0.01 µM

**Q.** What about the GI50 (M14) of the same compound?
**A.** 0.018 µM

**Q.** What about the GI50 (HOP-62) of the same compound?
**A.** 15.9 µM

**Q.** And the GI50 (HT-29)?
**A.** 0.012 µM

**Q.** What about the GI50 (LOX IMVI) of the same compound?
**A.** 0.179 µM

**Q.** What about the GI50 (ACHN) of the same compound?
**A.** 0.033 µM

**Q.** What about the selectivity ratio [2] of the same compound?
**A.** > 21

**Q.** What about the GI50 (SF-268) of the same compound?
**A.** 0.065 µM

**Q.** What about the GI50 (OVCAR-8) of the same compound?
**A.** 0.034 µM

**Q.** And the GI50 (IGROV-1)?
**A.** 0.13 µM

**Q.** And the GI50 (NCI/ADR-RES)?
**A.** 0.264 µM

**Q.** What about the GI50 (MDA-MB-435) of the same compound?
**A.** 0.027 µM

**Q.** What about the GI50 [3] of the same compound?
**A.** < 0.01 µM

**Q.** What about the GI50 (U-251) of the same compound?
**A.** < 0.01 µM

**Q.** What about the GI50 (SNB-75) of the same compound?
**A.** 0.332 µM

**Q.** What about the GI50 (BT-549) of the same compound?
**A.** 0.058 µM

**Q.** And the GI50 (COLO 205)?
**A.** 0.012 µM

**Q.** And the GI50 (SN12C)?
**A.** 0.025 µM

**Q.** And the GI50 (MCF7)?
**A.** < 0.01 µM

**Q.** And the GI50 (SK-MEL-2)?
**A.** 0.062 µM

**Q.** And the GI50 (HOP-92)?
**A.** 0.063 µM

**Q.** And the GI50 (SK-MEL-28)?
**A.** 16.3 µM

**Q.** And the GI50 (OVCAR-4)?
**A.** 0.072 µM

**Q.** And the GI50 (T47D)?
**A.** < 0.01 µM

**Q.** And the CC50 at 48 h [4]?
**A.** > 78 µM

**Q.** What about the GI50 (HCT-15) of the same compound?
**A.** < 0.01 µM

**Q.** And the GI50 (A549)?
**A.** 0.018 µM
